{"source": "paper PMC10788937", "about": "“Chemical Catalysis Guides Structural Identification for the Major In Vivo Metabolite of the BET Inhibitor JQ1” (ACS Medicinal Chemistry Letters, 2024)", "key": {"in vitro": {"assay": "in vitro", "procedure": "(§1) The samples are collected at specific time-points (0, 5, 10, 20, 40, and 60 min. The reactions are terminated by adding equivalent volume of ice-cold MeOH and vortexed. The reaction mixtures are centrifuged at rcf 15,000 for 15 min. Five μL of the supernatant will be analyzed by UHPLC-Q Exactive Orbitrap MS (Thermo Fisher Scientific, San Jose, CA) equipped with 50 mm × 4.6 mm column (XDB C-18, Agilent Technologies, Santa Clara, CA). The column temperature is maintained at 40 °C. The flow rate of is at 0.3 mL/min with a 30% mobile phase (acetonitrile containing 0.1% formic acid). Q Exactive MS is operated in positive or negative mode with electrospray ionization. Ultrapure nitrogen is applied as the sheath (45 arbitrary unit), auxiliary (10 arbitrary unit), sweep (1.0 arbitrary unit) and the collision gas. The capillary gas temperature is set at 275 °C and the capillary voltage was set at 3.7 kV. MS data were acquired from 80 to 1200 Da in […]\n(§2) The Surface Plasmon Resonance (SPR) experiment was conducted using a Pioneer FE SPR System (Sartorius) equipped with a SPR HisCap Sensor\n(§3) Chip. The instrument was calibrated and validated prior to the experiment according to the manufacturer's instructions. The chip surface was activated with a mixture of N-hydroxysuccinimide (NHS), 50 mM, and N-ethyl-N'-(3-dimethylaminopropyl) carbodiimide (EDC), 200 mM, at a 20 µL/min flow rate for 5. minutes. Covalent attachment of his-BRDT to channel 1 was achieved by injecting 150 µL of protein at 10 mg/mL at […]. Channel 2 of the chip was used as a blank reference and unreacted functional groups of both channels were blocked using ethanolamine.\n(§4) SPR running buffer consisted of 100 mM Tris-HCl, 200 mM NaCl, and 0.05% Tween-20. […]\n(§5) closely mimics the buffer conditions and injected at 40µL/min using the OneStep injection system at 0.5, 5, and 50 µM concentrations. The real-"}, "BRD4": {"test_system": "BRD4", "conditions": "read-out: BRD4 IC50; ALPHAScreen, biotin-tagged (+)-JQ1 probe"}, "[1]": {"assay": "Pharmacokinetic studies in mice (1:1 mixture, intraperitoneal)", "assay_type": "in vivo, mice (C57BL/6NJ)", "conditions": "for AUC(0-t) / CL/F / half-life at 24 h: C57BL/6NJ, mouse, plasma, ip, 50 mg/kg 1:1 mixture, intraperitoneal", "from_the_text": "The observed improvement in male mice was not determined to be significant, but the gender differences are not unprecedented in human drug metabolism, as the clearance of CYP3A substrates occurs more rapidly by females than males.[35] Gender differences in hepatic CYP expression have been identified in mice, rats, and humans,[36] including a female-specific CYP3A family member in mice,[37] and circadian variations in mice can accentuate the sex differences in CYP3A isoform expression.[38] […] It is noteworthy that the relationship between AUC and half-life can be affected with no correlation due to influence on both by various factors such as target-mediated drug disposition, drug formulation, route of administration, metabolism, absorption, and elimination pathways.[39],[40] AUC0–t represents the cumulative effect, while t1/2 represents only the rate at which the drug is eliminated from the body. […]\ntime binding response was recorded using the instrument software and sensorgrams were analyzed using the QDAT software. The baseline subtraction, referencing, and double-referencing techniques were applied to obtain specific binding responses. Kinetic parameters were calculated by fitting sensograms to OneStep binding models for determining the dissociation rate constant (kd) for the highest concentration and constraining the lower concentrations to the determined value. All data was locally fitted to a simple 1:1 interaction model.\nPharmacokinetic studies in mice\nMouse studies were performed under protocols approved by the Institutional Animal Care and Use Committee of Baylor College of Medicine and guidelines established by the NIH Guide for the Care and Use of Laboratory Animals. Animals were housed under standard conditions of a 12-hour light/dark cycle in a vivarium with controlled ambient temperature (70˚ ± 2˚ and 20-70% relative humidity). Pharmacokinetic studies were performed using 8-12-week-old mice (C57BL/6NJ, female, n =4 and male n = 4)). Mice were administered 50 mg/kg of compounds (1:1 of mixtures of (+)-JQ1 and (+)-JQ1-D) via intraperitoneal injection to mice. Twenty µl of blood was collected via the tail vein at 0, 15, 30 minutes, 1, 2, 4, 8, and 24 hours post treatment. To 10 ul of plasma was added 25 ul of MeOH with internal standard. The resulting mixtures were vortexed and span at rcf 15,000 for 15 min and 5 ul of the supernatant were injected into the UHPLC-Q Exactive Orbitrap MS for analysis. The concentrations of tested compounds were calculated based on their corresponding standard curves. Pharmacokinetic parameters including half-time (t1/2), area under the plasma concentration–time curve during the period of observation (AUC0–t), clearance normalized by bioavailability (CL/F) were calculated on WinNonlin software (Certara, Princeton, NJ) by noncompartmental analysis."}, "[2]": {"assay": "Isotopomeric ratios from the pharmacokinetic time course in mice", "assay_type": "in vivo", "conditions": "first time point"}, "[3]": {"conditions": "cited from earlier work"}, "BRDT": {"molecular_target": "BRDT (Homo sapiens, UniProt Q58F21)", "assay_type": "binding", "conditions": "SPR, his-BRDT; for Kd: read-out: BRDT binding Kd", "procedure": "as §1, §2, §3, §4, §5"}}, "data": [{"smiles": "[2H]C([2H])([2H])c1sc2c(c1C)C(c1ccc(Cl)cc1)=N[C@@H](CC(=O)OC(C)(C)C)c1nnc(C)n1-2", "note": "[(+)-JQ1-D]", "values": [{"measurement": "half-life at 1 h, 0.2 μM", "setting": "in vitro; human, microsomes", "value": 22.5, "unit": "min"}, {"measurement": "half-life at 1 h, 0.2 μM", "setting": "in vitro; mouse, microsomes", "value": 19.8, "unit": "min"}, {"measurement": "IC50", "setting": "BRD4", "value": "[…]"}, {"measurement": "AUC(0-t)", "setting": "[1]; female mice", "value": "[…]"}, {"measurement": "CL/F", "setting": "[1]; female mice", "value": 16.5, "unit": "mL/min/kg"}, {"measurement": "half-life at 24 h", "setting": "[1]; female mice", "value": "[…]"}, {"measurement": "AUC(0-t)", "setting": "[1]; male mice", "value": 94200, "unit": "ng·h/mL"}, {"measurement": "CL/F", "setting": "[1]; male mice", "value": "[…]"}, {"measurement": "half-life at 24 h", "setting": "[1]; male mice", "value": "[…]"}, {"measurement": "improvement of total exposure (AUC0–t) compared to (+)-JQ1", "setting": "[1]; female mice", "value": 23, "unit": "%"}, {"measurement": "improvement of total exposure (AUC0–t) compared to (+)-JQ1", "setting": "[1]; male mice", "value": "[…]"}]}, {"smiles": "Cc1c(CO)sc2c1C(c1ccc(Cl)cc1)=N[C@@H](CC(=O)OC(C)(C)C)c1nnc(C)n1-2", "note": "[M1]", "values": [{"measurement": "M1/M1D ratio", "setting": "[2]; female mice", "value": "2.095 ± 0.089"}, {"measurement": "M1/M1D ratio", "setting": "[2]; male mice", "value": "1.799 ± 0.043"}]}, {"smiles": "Cc1sc2c(c1C)C(c1ccc(Cl)cc1)=N[C@@H](CC(=O)OC(C)(C)C)c1nnc(C)n1-2", "note": "[(+)-JQ1, reference compound]", "values": [{"measurement": "half-life at 0.2 μM", "setting": "in vitro; human, microsomes", "value": 7.9, "unit": "min"}, {"measurement": "half-life at 1 h, 0.2 μM", "setting": "in vitro; human, microsomes", "value": "[…]"}, {"measurement": "half-life at 1 h, 0.2 μM", "setting": "in vitro; mouse, microsomes", "value": "[…]"}, {"measurement": "IC50", "setting": "BRD4", "value": "[…]"}, {"measurement": "in vivo half-life", "setting": "[3]", "value": "about an hour"}, {"measurement": "AUC(0-t)", "setting": "[1]; female mice", "value": "[…]"}, {"measurement": "CL/F", "setting": "[1]; female mice", "value": "[…]"}, {"measurement": "half-life at 24 h", "setting": "[1]; female mice", "value": 116, "unit": "min"}, {"measurement": "AUC(0-t)", "setting": "[1]; male mice", "value": "[…]"}, {"measurement": "CL/F", "setting": "[1]; male mice", "value": "[…]"}, {"measurement": "half-life at 24 h", "setting": "[1]; male mice", "value": 202, "unit": "min"}]}, {"smiles": "Cc1c(C(F)F)sc2c1C(c1ccc(Cl)cc1)=N[C@@H](CC(=O)OC(C)(C)C)c1nnc(C)n1-2", "note": "[(+)-JQ1-F2]", "values": [{"measurement": "BRDT binding Kd", "setting": "BRDT", "value": "lost potency"}, {"measurement": "Kd", "setting": "BRDT", "value": 3920, "unit": "nM"}, {"measurement": "Human liver microsomal t1/2", "setting": "in vitro; 0.1 mg/mL microsomal protein", "value": "substantially improved half-life"}, {"measurement": "half-life at 1 h, 0.2 μM", "setting": "in vitro; human, microsomes", "value": 125, "unit": "min"}]}, {"smiles": "Cc1c(CF)sc2c1C(c1ccc(Cl)cc1)=N[C@@H](CC(=O)OC(C)(C)C)c1nnc(C)n1-2", "note": "[(+)-JQ1-F1]", "values": [{"measurement": "BRDT binding Kd", "setting": "BRDT", "value": "lost potency"}, {"measurement": "Kd", "setting": "BRDT", "value": 722, "unit": "nM"}, {"measurement": "half-life at 1 h, 0.2 μM", "setting": "in vitro; human, microsomes", "value": 52, "unit": "min"}]}]}
